The values that follow come from EP0609460A1, “PHARMACEUTICAL AGENT WITH A[…]” (KISLYAKOVA, Nonna Dmitrievna, priority 1992, dated 1994).

Data set [1] has as its system hormone-susceptible DMBA-induced mammary gland cancer tumors. Briefly: DMBA-induced hormone-susceptible mammary gland cancer in female rats, daily oral treatment. Format: in vivo.
Data set [2] concerns mammalian cancer cells. The conditions noted are these: in vitro, cited from earlier work.
For data set [3], the system named is DMBA-induced mammary gland cancer. The note with it: cited from earlier work; for per cent of complete regression (disappearance of tumor) / per cent of partial decrease of tumors / tumors which did not regress at all / per cent of general regression of all tumors: after 30 days of administration; for per cent of general regression of all tumors: oil solutions, about 15 mg/kg.

Data set [4] has as its system induced mammary gland cancer. Briefly: Induced mammary gland cancer in rats, long-term growing tumors with lost androgen susceptibility (Table 1). Format: in vivo, White random-bred rats.
The subject of data set [5] is hormone-susceptible malignant tumors in women. Briefly: Clinical use in volunteer patients. The note with it: long-term (up to 2 months) administration in low doses.
Procedure: The duration of the course - 2 months.
The daily dose (with the patient's weight about 70 kg) consisted of 3 g DL-valine in combination with 25 mg (0.025 g or 5 tablets) methyltestosterone. The daile dose was divided into 3 single ones (1 g DL-valine in warm milk enterally and 1 tablet of methyltestosterone sublingually 3 times daily - on an empty stomach and before meals; and 1 tablet of methyltestosterone without DL-valine sublingually 2 times in the middle of the day before meals). The patient strictly observed the diet with the excess of protein, limited amount of carbohydrates and complete exclusion of animal fat and phospholipids (fish hard-roe, egg yolk), using no more than 1-2 table spoonfuls of vegetable oil daily.

As to `CC(C)C(N)C(=O)O` (racemic) [DL-valine], the regression effect entry in data set [1] (DL-valine 275 mg/kg in the mixture) is given as “disappears completely”. In addition, the “optimal dose of DL-valine” value in data set [1] (in the mixture) was 550 mg/kg. Also, the “damage of non-malignant cells” value in data set [2] is “without any damage”. In addition, in data set [2] (compared with other DL-amino acids), the “cytotoxic effect on mammalian cancer cells” value was “the strongest cytotoxic effect”.
In the case of `C[C@@H]1C[C@@]2(C)[C@@H](CC[C@@H]3[C@@H]2CC[C@]2(C)[C@@H](O)CC[C@@H]32)CC1=O` [2α -methyldihydrotestosterone], in data set [3], the “per cent of complete regression (disappearance of tumor)” value (“per cent of complete regression” for short) is 20%, the “per cent of partial decrease of tumors” value is listed as 60%, the “tumors which did not regress at all” value is on record as 20% and the “per cent of general regression of all tumors” value (from here on “per cent … of all tumors”) is given as 80%.
Regarding `CCC(=O)O[C@H]1CC[C@H]2[C@@H]3CC[C@H]4CC(=O)[C@H](C)C[C@]4(C)[C@H]3CC[C@]12C` [2α-methyldihydrotestosterone propionate], in data set [3], the “per cent of complete regression” value was 50%, the “per cent of partial decrease of tumors” value is reported as 20%, the “tumors which did not regress at all” value is reported as 30% and the “per cent … of all tumors” value was 70%.
Consider `C[C@]12C=CC(=O)C=C1CC[C@@H]1[C@@H]2CC[C@@]2(C)[C@H]1CC[C@]2(C)O` [methandrostenolone], for which the “optimal dose of methandrostenolone in mixture with DL-valine” value in data set [4] (long-term growing tumors 10 cm³ or larger) is reported as 20-25 mg/kg body weight.
On to `C[C@]12CCC(=O)C=C1CC[C@@H]1[C@@H]2CC[C@@]2(C)[C@H]1CC[C@]2(C)O` [methyltestosterone], for which, in data set [1] (Rattus norvegicus, po, without DL-valine, read-out: dose from which methyltestosterone alone causes regression), the minimal effective dose is at least 25 mg/kg. Also, the “antiblastic effect alone, without DL-valine” value in data set [1] (nontherapeutic doses 5-10 mg/kg) is reported as “cause no regression or even inhibition of the growth”. Also, the “better dose of methyltestosterone in combination with DL-valine” value in data set [1] (tumor sizes over 6.0 cm³ up to 8-10 cm³) turned out to be 10 mg/kilo body weight. Besides, the “dose of methyltestosterone giving the optimal antiblastic effect in combination with DL-valine” value in data set [1] (tumors of 4.0 cm³ to 6.0 cm³) is reported as 5 mg per kilo body weight. In data set [3] (administered orally), the experimental therapeutic dose was 25-40 mg/kg per day. Also, the side effects entry in data set [5] is reported as “weak manifestations of virilism”.
`COc1cc(C=NNC(=O)c2ccncc2)ccc1O` [phthivazid]: the “optimal dose of phthivazid” value in data set [4] (with DL-valine and methandrostenolone, found empirically) was 45-50 mg/kg body weight.
In the case of `CCC(=O)O[C@H]1CC[C@H]2[C@@H]3CCC4=CC(=O)CC[C@]4(C)[C@H]3CC[C@]12C` [testosterone propionate], in data set [3], the “per cent of complete regression” value is 10%, the “per cent of partial decrease of tumors” value was 30%, the “tumors which did not regress at all” value is 60% and the “per cent … of all tumors” value is given as 40%.
